The source of these data is paper PMC4845862, “Quantification of active mitochondrial permeability transition pores using GNX-4975 inhibitor titrations provides insights into molecular identity” (Biochemical Journal, 2016).

This assay concerns adenine nucleotide translocase (ANT). Briefly: Binding of solubilized heart IMM proteins to immobilized phenylarsine oxide (Western blot of ANT). Also on record: species or system beef and pig. Conditions: heart mitochondria treated with 10 μM CAT prior to IMM isolation and solubilization. As to the method:
Centrifugation steps in this process were carried out using a benchtop Eppendorf 5415R centrifuge at 4°C. Mitochondria were washed in ISB and centrifuged at 12 000 g for 5 min before re-suspension in ISB containing protease inhibitors (4 μg/ml each of antipan, pepstatin A and leupeptin plus 0.5 mM benzamidine and 0.5 mM PMSF). Mitochondria were incubated with digitonin (0.12 mg/mg of mitochondrial protein) at 4°C for 15 min on a rotary mixer, and the resulting mitoplasts collected by centrifugation at 9000 g for 10 min before resuspension in ISB containing protease inhibitors and PEG ether W1 (Sigma P7516, formerly known as Lubrol) at 0.16 mg/mg of mitochondrial protein. […]
An immobilized PAO matrix was synthesized by coupling 4-aminophenylarsine oxide to Affi-gel 10 (Bio-Rad Laboratories 153-6099) as described previously. The resin was washed twice in 10 volumes of PAO column buffer (PCB: 150 mM Na2SO4, 50 mM HEPES and 1 mM EGTA, pH 7.2) containing 0.5% (v/v) Triton X-100 and then resuspended to give a 50% (v/v) slurry ready for use. […] Samples were analysed by SDS/PAGE and Western blotting or analysed by Orbitrap MS in the University of Bristol Proteomics Facility. […] The integrated optical density for each band was calculated as the product of the ‘area’ and ‘mean grey value’ with subtraction of a background signal obtained for an equivalent adjacent area lacking any band. […]

In the case of `C=C1[C@@H]2CC[C@H]3[C@]4(C)C[C@H](O[C@@H]5O[C@H](CO)[C@@H](OS(=O)(=O)O)[C@H](OS(=O)(=O)O)[C@H]5OC(=O)CC(C)C)CC(C(=O)O)(C(=O)O)[C@H]4CC[C@]3(C2)[C@H]1O` [CAT, carboxyatractyloside], the “ANT binding to the PAO column” value is reported as “totally prevented”.
